Patent US20130022635A1, “Expression Modulator For Clock Gene Bmal” (SHISEIDO COMPANY, LTD., priority 2010, published 2013)

Experiments:
Period1 gene = Period1 gene expression in cultured skin fibroblastic cells; assay type: cell-based, human
Protocol: As the cultured human fibroblastic cells, fibroblastic cells from normal human skin were purchased (Cell Application, Inc.) and used in the experiments. They were inoculated in DMEM medium supplemented with 10% FBS, 20 mM HEPES, Glutamax and antibacterial agents and cultured at 37° C. in 5% CO2. On the 6th day of culture, 50 ng/mL of cortisol or 10 μM of forskolin was added, and the samples were harvested at various times after time 0, which was defined as the time immediately after the addition of cortisol or forskolin. RNA was extracted from the cells with a commercially available RNA extraction kit, and the amounts of expression of the intended genes were measured by RT-PCR technology using commercially available PCR primers (Perfect Real Time Primer, Takara Bio). As for clock genes, amounts of expression of Period (represented by Period1) and Bmal1, which are involved in the core system, were determined. Similarly, the amounts of expression of a housekeeping gene RPLP0 were quantified and used as an internal standard to calculate the relative expression of the intended genes to RPLP0. […]

Bmal1 gene = Bmal1 gene expression (RT-PCR, relative to RPLP0) in cultured human skin fibroblastic cells; assay type: cell-based; conditions: expression at 2 and 16 hours after stimulation
Protocol: As the cultured human fibroblastic cells, fibroblastic cells from normal human skin were purchased (Cell Application, Inc.) and used in the experiments. They were inoculated in DMEM medium supplemented with 10% FBS, 20 mM HEPES, Glutamax and antibacterial agents and cultured at 37° C. in 5% CO2. On the 6th day of culture, 50 ng/mL of cortisol or 10 μM of forskolin was added, and the samples were harvested at various times after time 0, which was defined as the time immediately after the addition of cortisol or forskolin. RNA was extracted from the cells with a commercially available RNA extraction kit, and the amounts of expression of the intended genes were measured by RT-PCR technology using commercially available PCR primers (Perfect Real Time Primer, Takara Bio). As for clock genes, amounts of expression of Period (represented by Period1) and Bmal1, which are involved in the core system, were determined. Similarly, the amounts of expression of a housekeeping gene RPLP0 were quantified and used as an internal standard to calculate the relative expression of the intended genes to RPLP0. […] Test substances were evaluated for the expression modulating effect on a Bmal gene based on the amount of gene expression at 16 hours after stimulation. […]

SMILES	Induction of Period gene expression rhythm or promotion of its expression (in words) (Period1 gene)	Induction of Bmal1 expression rhythm and increase of Bmal1 gene expression (in words) (Bmal1 gene)
C=C1CC/C=C(\C)CC[C@@H]2[C@@H]1CC2(C)C [beta-Caryophyllene]	can induce expression rhythm of a Period gene or promote its expression	
C[C@]12CCC(=O)C=C1CC[C@@H]1[C@@H]2[C@@H](O)C[C@@]2(C)[C@H]1CC[C@]2(O)C(=O)CO [cortisol]		significantly increase amounts of gene expression of Bmal1
